Measured values as given in patent US6676941B2 (Board of Regents, The University of Texas System, priority 1999, dated 2004).

Columns and labels:
[1] = Blood clearance of radioiodinated 2C3-GUS after intravenous injection; format: in vivo; details: 125I-labelled, intravenous injection into mice
Description: 2C3-GUS was radioiodinated with ^125I to a specific activity of 5×10^6 cpm/μg.

[2] = Enzymatic activity of the GUS portion of 2C3-GUS; format: biochemical
Description: The 6-His GUS was pure based upon SDS-PAGE, where it ran as a single band of 75 kDa band. On gel filtration columns, the 6-His GUS runs as a tetramer of about 300 kDa.
The biological activity of each component of the 2C3-GUS conjugate was confirmed.

VEGFR2 (KDR/Fc) = assay: Co-precipitation assay, VEGF binding to VEGFR2/Fc in solution; details: 40 ng VEGF, 200 ng receptor/Fc; 2C3 F(ab′)2 20 μg, A4.6.1 F(ab′)2 10 and 1 μg
Procedure: (§1) 200 ng of soluble forms of VEGFR1 (Flt-1/Fc) or VEGFR2 (KDR/Fc, R&D Systems, Minneapolis, Minn.) were added for a total volume of 50 μl and incubated for 2 hrs. The receptor/Fc constructs were precipitated using Protein A-sepharose beads and the resulting precipitate was washed 4 times with binding buffer.
(§2) Reducing sample buffer was added to the pellet and supernatant of each reaction and both were analyzed by 12% SDS-PAGE and transferred to PVDF membranes. […] The soluble receptor/Fc constructs were also detected by using peroxidase-conjugated goat anti-human Fc (Kirkegaard & Perry Laboratories, Inc.)
(§3) The receptor/Fc constructs were precipitated by incubation with Protein A sepharose beads. The precipitate was washed and resuspended in reducing sample buffer and separated by 12% SDS-PAGE and transferred to PVDF.

VEGFR1 (Flt-1/Fc) = assay: Co-precipitation assay, VEGF binding to VEGFR1/Fc in solution; details: 40 ng VEGF, 200 ng receptor/Fc; 2C3 F(ab′)2 20 μg, A4.6.1 F(ab′)2 10 and 1 μg
Procedure: as §1, §2, §3

[3] = test system: cancer patients having progressive disease; details: clinical trials; cited from earlier work
KDR = assay: 125I-VEGF binding to KDR expressing endothelial cells (ABAE cells); parameters: species or system bovine
NCI-H358 NSCLC tumors = assay: Treatment of established NCI-H358 NSCLC xenografts; format: in vivo, nu/nu mice
Procedure: (§4) Male nu/nu mice bearing subcutaneous NCI-H358 tumors or HT1080 fibrosarcoma 200-400 mm^3 in size were injected i.p. with test or control antibodies. The NCI-H358 bearing mice were treated with 100 μg of antibodies per injection three times a week during the first week and twice a week during the second and third week. The mice were then switched to 50 μg per injection every five days. The HT1080 bearing mice were treated with 100 μg of the indicated antibody or saline every other day throughout the duration of the study. In both studies, mice were sacrificed when their tumors reached 2500 mm^3 in size or earlier if tumors began to ulcerate.
Doses were 50-100 μg every 3-5 days. […] In addition to measuring mean tumor volume (FIG. 4), photographs of the mice from each treatment group were also taken to show the differences in tumor size and appearance at the end of the study.

VEGFR2 (KDR/Flk-1) = assay: ELISA: VEGF binding to VEGFR2-coated wells in presence of antibody; parameters: species or system mouse
VEGFR1 (FLT-1) = assay: ELISA: VEGF binding to VEGFR1-coated wells in presence of antibody
Procedure: The extracellular domain of VEGFR1 (Flt-1/Fc, R&D Systems, Minneapolis) or VEGFR2 (sFlk-1-biotin) was coated directly on wells of a microtiter plate or captured by NeutrAvidin (Pierce, Rockford, Ill.) coated wells, respectively. VEGF at a concentration of 1 nM (40 ng/ml) was incubated in the wells in the presence or absence of 100-1000 nM (15 μg-150 μg/ml) of control or test antibodies. The wells were then incubated with 1 μg/ml of rabbit anti-VEGF antibody (A-20, Santa Cruz Biotechnology, Santa Cruz, Calif.).
The reactions were developed by the addition of peroxidase-labeled goat anti-rabbit antibody (Dako, Carpinteria, Calif.) and visualized by addition of 3,3′5,5′-tetramethylbenzidine (TMB) substrate (Kirkegaard and Perry Laboratories, Inc.). Reactions were stopped after 15 min with 1 M H3PO4 and read spectrophotometrically at 450 nM.

HT1080 fibrosarcoma = assay: Treatment of established HT1080 fibrosarcoma xenografts; format: in vivo, nu/nu mice; details: 100 μg i.p. every other day; tumors 200-250 mm^3 at start
Procedure: as §4

[4] = target: T1, VEGF alone or VEGF associated with sFlk-1 (VEGF:Flk-1) (Homo sapiens, UniProt P15692); assay: Indirect and capture ELISA for reactivity with VEGF alone or VEGF:Flk-1; format: binding
T1 sequence (P15692 27-191 isoform P15692-4): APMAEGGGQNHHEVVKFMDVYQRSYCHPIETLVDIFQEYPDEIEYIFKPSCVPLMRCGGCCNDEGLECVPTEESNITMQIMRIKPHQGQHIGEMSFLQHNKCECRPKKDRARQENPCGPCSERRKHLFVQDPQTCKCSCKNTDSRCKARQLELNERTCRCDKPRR
Procedure: The Flk-1/SEAP protein was produced and purified as described by Tessler et al. (1994). Basically, the extracellular domain of Flk-1 (sFlk-1) was produced in Spodoptera frugiperda (Sf9) cells and purified by immunoaffinity techniques utilizing a monoclonal anti-Flk-1 antibody (1A8). sF1k-1 was then biotinylated and bound on avidin-coated plates.
The reactivity was determined as described above for the initial screening.
A capture ELISA was also developed. In the capture ELISA, microtiter plates were coated overnight at 4° C. with 100 ng of the indicated antibody. […] Streptavidin conjugated to peroxidase (Kirkegaard & Perry Laboratories, Inc.), diluted 1:2000, was used as a second layer and developed.

[5] = test system: NCI-H358 human NSCLC and HT29 human colonic adenocarcinoma xenografts; assay: In vivo localization in mice bearing human tumor xenografts (immunohistochemistry of tumor and organs)
Procedure: Tumors were grown subcutaneously in immunocompromised mice (NCI-H358 NSCLC in nu/nu mice and HT29 colon adenocarcinoma in SCID mice) until the tumor volume was approximately 1 cm^3. 100 μg of unlabeled antibody for studies using SCID mice, or 100 μg of biotinylated antibody for studies using nude mice, was injected intravenously via a tail vein. Twenty four hours later, the mice were anesthetized, perfused with PBS, and tumor and organs including heart, lungs, liver, kidneys, intestines and spleen were collected and snap frozen in liquid nitrogen.
The tumor and organs from each mouse were sectioned on a cryostat and stained for antibody immunohistochemically as above, with the exception that sections from the nude mice were developed using peroxidase labeled streptavidin-biotin complex (Dako, Carpinteria, Calif.) and the sections from the SCID mice were developed using two peroxidase-conjugated secondary antibodies, a goat anti-mouse IgG+IgM followed by a rabbit anti-goat IgG.
100 μg of GV39M and 3E7 or isotype-matched control IgG were injected into SCID mice bearing HT29 human colonic adenocarcinomas. Twenty-four hours later, the mice were sacrificed, exsanguinated and the tumors and tissues were removed.

[6] = target: T2, denatured VEGF121 and VEGF165 (Homo sapiens, UniProt P15692); assay: Western blot of VEGF under reducing and non-reducing conditions; format: binding
T2 sequence (P15692 27-191 isoform P15692-4): T1 sequence (P15692 27-191 isoform P15692-4)
Procedure: The nitrocellulose membrane was blocked using Sea-Block PP82-41 (East Coast Biologics, Berwick, Me.), and probed with primary antibodies using a mini-blotter apparatus (Immunetics, Cambridge, Mass.). The membranes were developed after incubation with the appropriate peroxidase-conjugated secondary antibody by ECL enhanced chemiluminescence.
Western blot analyses of anti-VEGF antibodies were conducted by separating VEGF165 in the presence of 5% FCS using SDS-PAGE on a 12% gel and analyzing by a standard western blotting protocol using ECL detection. The primary antibodies were incubated with the nitrocellulose membrane using a multi-lane mini-blotter apparatus.

VEGFR2 = assay: VEGF-induced phosphorylation of VEGFR2 in PAE/KDR cells (immunoprecipitation, western blot); format: cell-based; details: 15 min stimulation, antibodies at 100 nM (15 μg/ml)
Procedure: PAE/KDR, PAE/FLT, and bEND.3 cells were grown to 80-90% confluency in 100 mm tissue dishes in media containing 5% serun. The cells were then serum starved for 24 hours in media containing 0.1% serum. After pretreatment with […] sodium orthovanadate in PBS for 30 min, the cells were incubated with 5 nM (200 ng/ml) VEGF165, 5 nM (100 ng/ml) bFGF (R&D Systems, Minneapolis, Minn.), or A673 tumor conditioned media in the presence or absence of control or test antibodies for additional 15 min.
The cells were then washed with ice-cold PBS containing 10 mM EDTA, 2 mM sodium fluoride, and 2 mM sodium orthovanadate and lysed in lysis buffer (50 mM Tris, 150 mM NaCl, 1% Nonidet P-40, 0.25% sodium deoxycholate, 0.1% CHAPS, 5 mM EDTA, 1.5 mM MgCl2, 2 mM sodium fluoride, 2 mM sodium orthovanadate, 10% glycerol and protease inhibitors (Complete Protease Inhibitor Cocktail tablets, Boehringer Mannheim)). The lysates were clarified by centrifugation and resulting supernatant used for immunoprecipitation.
The reactions using the chicken anti-FLT-1 antibody were subsequently incubated with a bridging goat anti-chicken antibody (Kirkegaard and Perry Laboratories, Inc.) for 1 h at 4° C. […]

[7] = test system: A673 rhabdomyosarcoma and LS174T colon adenocarcinoma tumors; assay: Treatment of mice with established A673 and LS174T tumors; details: mouse, in vivo
[8] = test system: VEGF-mediated growth of ABAE cells; assay: Endothelial cell growth assay (MTS), VEGF-mediated growth of ABAE cells; format: cell-based, bovine; details: Table 5 summary
Procedure: Adult bovine aortic endothelial (ABAE) cells were plated into 96-well tissue culture plates at 1500 cells/well and grown in the presence of 0.5 nM human VEGF with the addition of the various sample and control antibodies. Control wells received media with or without VEGF.
After 4 days of incubation, the cells were quantified by an MTS (3-(4,5-dimethylthiazol-2-yl)-5-(3-carboxylmethoxyphenyl)-2-(4-sulfophenyl)-2H-tetrazolium, inner salt) conversion assay, where MTS conversion to a formazan is proportional to cell number and can be followed by absorbance at 490 nm (Cell Titer 96 AQueous One Solution Cell Proliferation Assay, Promega, Madison, Wis.). The assay was performed according to the manufacturer's instructions.
Cell growth was estimated by subtracting the MTS conversion in cultures to which VEGF was not added. Results were expressed as a percentage of the MTS conversion in control cultures to which only VEGF was added (Buttke et al., 1993).

[9] = 100 fold molar excess over VEGF

2C3-GUS
t½ α [1]: about 6 hours
t½ β [1]: about 25 hours
Enzymatic activity of GUS portion [2]: retained enzymatic activity

2C3 F(ab′)2: F(ab′)2 fragment of 2C3
Blocking of VEGF binding to VEGFR2/Fc in solution (VEGFR2 (KDR/Fc)): blocked the binding of VEGF to VEGFR2/Fc
Blocking of VEGF binding to VEGFR1/Fc in solution (VEGFR1 (Flt-1/Fc)): not to VEGFR1/Fc

NC(=O)c1nnn(Cc2cc(Cl)c(C(=O)c3ccc(Cl)cc3)c(Cl)c2)c1N [CAI, carboxyamidotriazole]
Disease stabilization, share of cancer patients having progressive disease before treatment [3]: 49%

2C3: anti-VEGF monoclonal antibody, IgG2a,k, raised to recombinant human VEGF; hybridoma ATCC PTA 1595; blocks VEGF binding to VEGFR2, not VEGFR1
Blocking of 125I-VEGF binding to KDR on ABAE cells (KDR): blocks VEGF from binding to KDR in a concentration dependent manner
Mean tumor weight at the end of the study (day 116) (NCI-H358 NSCLC tumors; FIG. 5A, 100 μg i.p., initial treatment 500 μg i.v.): 0.054 g
Mean tumor volume after approximately 14 wk of treatment (NCI-H358 NSCLC tumors; FIG. 5A, 100 μg i.p., start 480 mm^3 (2C3), 428 mm^3 (3E7)): 84 mm^3
Decrease in mean tumor volume (NCI-H358 NSCLC tumors; FIG. 5A, after approximately 14 wk): approximately 80%
Mean tumor volume at the end of the study, % of the initial mean tumor volume (NCI-H358 NSCLC tumors; tumors 300-450 mm^3 at start, 50-100 μg i.p. every 3-5 days, approximately 10 weeks): 30%
Reduction in VEGF binding to VEGFR2 (VEGFR2 (KDR/Flk-1); [9]): about 74%
Amount VEGF bound to VEGFR2-coated wells, % of amount bound in the absence of antibody (VEGFR2 (KDR/Flk-1); 1000-fold molar excess of antibody over VEGF (1 nM VEGF)): ~19%
Reduction in VEGF binding to VEGFR2 (VEGFR2 (KDR/Flk-1); 1000 fold molar excess over VEGF): about 81%
Blocks VEGF from binding to VEGFR2 (VEGFR2 (KDR/Flk-1); Table 5 summary): Yes
Amount VEGF that bound to ELISA wells, maintained (VEGFR1 (FLT-1); [9]): about 92%
Blocks VEGF from binding to VEGFR1 (VEGFR1 (FLT-1); Table 5 summary): No
Effect on growth of HT1080 tumors (HT1080 fibrosarcoma): arrested the growth of the tumors
Predominant Reactivity [4]: VEGF
Tumor localization in the HT29 human tumor model ([5]; after i.v. injection): localized strongly to the connective tissue
Immunohistochemical Reactivity, Tumor ([5]; as E17, 3E7 and GV39M bound tumor vascular endothelium, 2C3 bound tumor stroma): 3+
Reactivity with VEGF on western blot [6]: react with denatured VEGF121 and VEGF165
Blocking of VEGF-induced phosphorylation of VEGFR2 (VEGFR2): block VEGF-induced phosphorylation of VEGFR2
Effect on growth of established A673 and LS174T tumors [7]: significantly slowed the growth
Blocks VEGF-induced proliferation [8]: Yes
